Patent US20040014814A1, “Compositions and methods for delaying preventing rejuvenating or reversing senescence in cells” (priority 2000, published 2004)

Assays:
MRC-5 cells [1] = assay: Effect of carnosine derivatives on cell growth / toxicity in MRC-5 cell cultures; format: cell-based, human; design: key to Effect on cell growth (score): (0) Toxic to cell growth; (10) Confluent cell growth; conditions: MRC-5 cells, scale 0 toxic to 10 confluent
Protocol: (§1) MRC -5 cells (fetal lung fibroblasts) were grown in Dulbecco's modification of Eagles' minimum essential medium (DMEM Gibco BRL Cat. No. 12800-017) containing 0.45% glucose, or MEM (Gibco BRL Cat. No. 612800-017) containing 0.1% glucose. Both media contained 10% fetal calf scrum (TRACE Biosciences Cat. No. 15-010-0500V) and Penicillin/Streptomycin 5000 IU, 5000 μg/ml (TRACE Biosciences Cat. No. 21-140-0100V). Cells were grown in […] flasks or in dishes (35 mm or 60 mm, Nunc) at 37° C. with 5% CO2. Cells were harvested with trypsin (TRACE Biosciences Cat. No. 21-163-0100V) and counted with a model ZF6 Coulter Counter. Cells were split in ratios of 1:2 or 1:4. Population doublings (PDs) were calculated from the ratio of the initial number of cells plated to the yield of cells after a period of time. This provides an accurate measure of cell growth, with the split ratios 1:2 and 1:4 corresponding to one and two passages respectively, which are broadly equivalent to population doublings. The media was changed every 5 days or when cells became confluent.
MRC-5 cells were used to observe the toxicity of a series of derivatives of carnosine on cell growth. Cell cultures were grown in DMEM media with 10% fetal calf serum and supplemented with the following carnosine analogues: carnosine ethyl ester, carnosine iso-propyl ester, carnosine n-butyl ester, carnosine n-hexyl ester, N-propyl carnosine, N-hexanoyl carnosine, N-trimethyl acetyl carnosine, N-acetyl carnosine methyl ester, N-acetyl carnosine ethyl ester and N-acetyl carnosine, […] Cells were also grown in DMEM supplemented with carnosine at 20 mM. […] Even at lower concentrations cell morphology was that of cells that have reached senescence i.e. broad flat cells with long process reaching out to other cells. Cell numbers were less than in the control flasks. […] As shown in FIG. 1 Acetyl-carnosine achieved a lifespan 5 PDs greater than the control and 6.7 PDs greater than carnosine over a 43 day period. […] In the early phase of the experiment growth rates were markedly greater than with the other compounds (FIG. 1).

non-enzymic glycation = assay: Anti-glycation activity; format: biochemical
human blood peptidases = assay: Stability in human blood serum / attack by human blood peptidases; format: in vitro ADME
senescent MRC-5 cells = assay: Rejuvenation of senescent MRC-5 cells (morphology); format: cell-based, human; conditions: media supplemented with the compound, FIG. 4
Protocol: as §1
It was shown above that acetyl-carnosine markedly delayed the onset of senescence by increasing the lifespan of MRC-5 cells in culture. This was confirmed by rejuvenation experiments (FIG. 4). The morphology of cells grown in media supplemented with acetyl-carnosine was distinct from the controls. […]

MRC-5 cells [2] = assay: Lifespan (population doublings) of MRC-5 cells in culture; format: cell-based, human
Protocol: Cultures were split in a 1:4 ratio when flasks were approximately 70-80% confluent.
as §1
MRC-5 cells were used to observe the toxicity of a series of derivatives of carnosine on cell growth. Cell cultures were grown in DMEM media with 10% fetal calf serum and supplemented with the following carnosine analogues: carnosine ethyl ester, carnosine iso-propyl ester, carnosine n-butyl ester, carnosine n-hexyl ester, N-propyl carnosine, N-hexanoyl carnosine, N-trimethyl acetyl carnosine, N-acetyl carnosine methyl ester, N-acetyl carnosine ethyl ester and N-acetyl carnosine, at concentrations ranging between 1 mM to 20 mM. Cells were also grown in DMEM supplemented with carnosine at 20 mM. […] Even at lower concentrations cell morphology was that of cells that have reached senescence i.e. broad flat cells with long process reaching out to other cells. Cell numbers were less than in the control flasks. […] As shown in FIG. 1 Acetyl-carnosine achieved a lifespan 5 PDs greater than the control and 6.7 PDs greater than carnosine over a 43 day period. […] In the early phase of the experiment growth rates were markedly greater than with the other compounds (FIG. 1).
In fact all populations of MRC-5 cells grown in DMEM supplemented with acetyl-carnosine preserved a younger phenotype for much longer than cells grown in DMEM supplemented with carnosine or its analogues.
Under control conditions the range was 57.3-64.5 PDs (n=5). With the addition of carnosine (20mM) to the medium the range was 61.8-63.7 PDs (n=5) with an average increase of 1.4 PDs which represents a 3 fold increase in cell number. However, when acetyl-carnosine (5 mM) was added to the medium, the range was 62.3-70.3 PDs (n=5) with an average increase of 5 PDs compared with the controls. This represents a 32 fold increase in cell number.

Anti-oxidant activity = format: biochemical; conditions: parent compound = carnosine
[3] = Fate of compound after cellular uptake; format: cell-based; conditions: compared with carnosine
Protocol: Experiments were conducted to determine the fate of acetyl-carnosine and carnosine after cellular uptake. […] A slower metabolism and incorporation into other proteins may be one reason for acetyl-carnosine having higher effective intracellular concentrations compared with carnosine despite its lower overall uptake.

SMILES: CC(=O)NCCC(=O)N[C@@H](Cc1cnc[nH]1)C(=O)O [N-acetyl carnosine]
- Effect on cell growth (score) (MRC-5 cells [1]; 0.5 mM): 7
- Effect on cell growth (score) (MRC-5 cells [1]; 1 mM): 8
- Effect on cell growth (score) (MRC-5 cells [1]; 2 mM): 9
- Effect on cell growth (score) (MRC-5 cells [1]; 5 mM): 10
- Effect on cell growth (score) (MRC-5 cells [1]; 10 mM): 9
- Effect on cell growth (score) (MRC-5 cells [1]; 20 mM): 8
- Effectiveness as an antiglycation agent (non-enzymic glycation): ineffective
- Resistance to attack by human blood peptidases (human blood peptidases): almost completely resistant
- Stability in human blood serum (human blood peptidases; human blood serum): quite stable
- Morphology of cells in rejuvenation experiment (senescent MRC-5 cells): phenotype typical of younger cells
- Range of lifespans of populations of MRC-5 cells (MRC-5 cells [2]; 5 mM in medium, n=5): 62.3-70.3 PDs
- Lifespan greater than carnosine (MRC-5 cells [2]; 5 mM vs carnosine 20 mM, passage 55 cells, over a 43 day period): 6.7 PDs
- Lifespan of MRC-5 cells in culture, Population Doublings (PD) (MRC-5 cells [2]; 5 mM, commenced at passage 55): 15.2 PD
- Average increase in lifespan compared with controls (MRC-5 cells [2]; 5 mM, n=5): 5 PDs
- Lifespan greater than the control (MRC-5 cells [2]; 5 mM, passage 55 cells, over a 43 day period): 5 PDs
- Increase in cell number (MRC-5 cells [2]; 5 mM, worked out from the PD increase): 32 fold
- Lifespan of MRC-5 cells compared with carnosine (FIG. 2) (MRC-5 cells [2]; acetyl-carnosine 5 mM vs carnosine 20 mM, commenced at passage 32): markedly increased the lifespan
- Increase in cell mass (MRC-5 cells [2]; cells exposed to supplemented media): 32 fold
- Antioxidant effectiveness relative to the parent compound (Anti-oxidant activity): 60%
- Residence time in the cell before degradation [3]: considerably longer residence time
